Bounds are passed on as bounds.

The target of the test is T1, WT/R232 STING protein (Homo sapiens, UniProt Q86WV6, H232R).
T1 construct: host or cells: HEK293T
T1 sequence (Q86WV6 whole entry H232R): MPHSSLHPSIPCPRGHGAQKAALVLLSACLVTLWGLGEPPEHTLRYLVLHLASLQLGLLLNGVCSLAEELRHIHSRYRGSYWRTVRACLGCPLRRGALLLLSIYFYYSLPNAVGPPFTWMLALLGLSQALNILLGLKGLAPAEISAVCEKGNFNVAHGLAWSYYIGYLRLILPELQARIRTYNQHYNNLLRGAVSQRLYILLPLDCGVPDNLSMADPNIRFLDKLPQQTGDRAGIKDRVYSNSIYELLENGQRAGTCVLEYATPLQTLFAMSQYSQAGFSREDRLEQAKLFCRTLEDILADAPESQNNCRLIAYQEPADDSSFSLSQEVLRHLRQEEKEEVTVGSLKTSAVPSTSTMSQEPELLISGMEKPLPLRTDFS
The test can be described thus: Luciferase reporter assay in HEK293T-hSTING-Luciferase cells (R232). Conditions: 20 hr stimulation, EC50 range. The format is cell-based. In outline:
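Readout is fold-induction over baseline of secreted luciferase, measured by luminescence after 20 hr compound stimulation. Cells: clonally selected HEK293T stably carrying hSTING (R232) and a luciferase reporter under five tandem ISREs fused to an ISG54 minimal promoter.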
Background: A reporter such as luciferase makes a cellular process visible.
`CNC1(C)C(=O)N(Cc2cc(F)cc(F)c2)c2cc(C(=O)NCc3c(F)cc(F)cc3F)ccc21` (stereo not drawn) [Example 145, 1-(3,5-Difluorobenzyl)-3-methyl-3-(methylamino)-2-oxo-N-(2,4,6-trifluorobenzyl)indoline-6-carboxamide]: the 50% effective concentration (EC50) (commonly the midpoint of the concentration-response curve) is 1 to 10 µM.
Under `CC1(O)C(=O)N(Cc2ccccc2F)c2cc(C(=O)NCc3ccco3)ccc21` (stereo not drawn) [Example 149, 1-(2-fluorobenzyl)-N-(furan-2-ylmethyl)-3-hydroxy-3-methyl-2-oxoindoline-6-carboxamide] stands above 10 µM.
Under `CC1(F)C(=O)N(Cc2cc(F)cc(F)c2)c2cc(C(=O)NCc3c(F)cc(F)cc3F)ccc21` (stereo not drawn) [Example 150, 1-(3,5-difluorobenzyl)-3-fluoro-3-methyl-2-oxo-N-(2,4,6-trifluorobenzyl)indoline-6-carboxamide] stands 1 to 10 µM.
Under `COC1(C)C(=O)N(Cc2c(F)cccc2Cl)c2cc(C(=O)NCc3c(F)cc(F)cc3F)ccc21` (stereo not drawn) [Example 151] stands 1 to 10 µM.
The molecule `CN(C)C1(C)C(=O)N(Cc2c(F)cccc2Cl)c2cc(C(=O)NCc3c(F)cc(F)cc3F)ccc21` (stereo not drawn) [Example 152, 1-(2-chloro-6-fluorobenzyl)-3-(dimethylamino)-3-methyl-2-oxo-N-(2,4,6-trifluorobenzyl)indoline-6-carboxamide] showed a concentration for a half-maximal effect (EC50) of 1 to 10 µM.
Under `CC1(N)C(=O)N(Cc2ccccc2F)c2cc(C(=O)NCc3c(F)cc(F)cc3F)ccc21` (stereo not drawn) [Example 154, 3-amino-1-(2-fluorobenzyl)-3-methyl-2-oxo-N-(2,4,6-trifluorobenzyl)indoline-6-carboxamide] stands above 10 µM.
Under `O=C(NCc1c(F)cc(F)cc1F)c1ccc2c(c1)N(Cc1c(F)cccc1Cl)C(=O)C2(Cl)c1ccccc1` (stereo not drawn) [Example 156, 3-chloro-1-(2-chloro-6-fluorobenzyl)-2-oxo-3-phenyl-N-(2,4,6-trifluorobenzyl)indoline-6-carboxamide] stands above 10 µM.
Under `CCC1(O)C(=O)N(Cc2c(F)cccc2Cl)c2cc(C(=O)NCc3c(F)cc(F)cc3F)ccc21` (stereo not drawn) [Example 158, 1-(2-chloro-6-fluorobenzyl)-3-ethyl-3-hydroxy-2-oxo-N-(2,4,6-trifluorobenzyl)indoline-6-carboxamide] stands above 10 µM.
`CC(C)C1(O)C(=O)N(Cc2c(F)cccc2Cl)c2cc(C(=O)NCc3c(F)cc(F)cc3F)ccc21` (stereo not drawn) [Example 159, 1-(2-chloro-6-fluorobenzyl)-3-hydroxy-3-isopropyl-2-oxo-N-(2,4,6-trifluorobenzyl)indoline-6-carboxamide] returned an EC50 above 10 µM.
Under `O=C(NCc1c(F)cc(F)cc1F)c1ccc2c(c1)N(Cc1c(F)cccc1Cl)C(=O)C2(O)c1ccccc1` (stereo not drawn) [Example 160, 1-(2-chloro-6-fluorobenzyl)-3-hydroxy-2-oxo-3-phenyl-N-(2,4,6-trifluorobenzyl)indoline-6-carboxamide] stands above 10 µM.
Under `CC1(O)C(=O)N(Cc2cc(F)cc(F)c2)c2cc(C(=O)NCc3c(F)cc(F)cc3F)ccc21` (stereo not drawn) [Example 162] stands above 10 µM; under `CC1(CC(=O)O)C(=O)N(Cc2cc(F)cc(F)c2)c2cc(C(=O)NCc3c(F)cc(F)cc3F)ccc21` (stereo not drawn) [Example 169, 2-(1-(3,5-difluorobenzyl)-3-methyl-2-oxo-6-((2,4,6-trifluorobenzyl)carbamoyl)indolin-3-yl)acetic acid], above 10 µM; under `CC1(C(N)=O)C(=O)N(Cc2cc(F)cc(F)c2)c2cc(C(=O)NCc3c(F)cc(F)cc3F)ccc21` (stereo not drawn) [Example 170], above 10 µM.
In turn, `CC1(CCN2CCOCC2)C(=O)N(Cc2cc(F)cc(F)c2)c2cc(C(=O)NCc3c(F)cc(F)cc3F)ccc21` (stereo not drawn) [Example 171, 1-(3,5-difluorobenzyl)-3-methyl-3-(2-morpholinoethyl)-2-oxo-N-(2,4,6-trifluorobenzyl)indoline-6-carboxamide] had a concentration for a half-maximal effect (EC50) above 10 µM.
The molecule `CC1(CN)C(=O)N(Cc2cc(F)cc(F)c2)c2cc(C(=O)NCc3c(F)cc(F)cc3F)ccc21` (stereo not drawn) [Example 172, 3-(aminomethyl)-1-(3,5-difluorobenzyl)-3-methyl-2-oxo-N-(2,4,6-trifluorobenzyl)indoline-6-carboxamide] came in with an EC50 above 10 µM.
Under `CC1(CCN)C(=O)N(Cc2cc(F)cc(F)c2)c2cc(C(=O)NCc3c(F)cc(F)cc3F)ccc21` (stereo not drawn) [Example 173, 3-(2-aminoethyl)-1-(3,5-difluorobenzyl)-3-methyl-2-oxo-N-(2,4,6-trifluorobenzyl)indoline-6-carboxamide] stands above 10 µM.
Under `CC1(CCO)C(=O)N(Cc2cc(F)cc(F)c2)c2cc(C(=O)NCc3ccc(F)cc3F)ccc21` (stereo not drawn) [Example 174, N-(2,4-difluorobenzyl)-1-(3,5-difluorobenzyl)-3-(2-hydroxyethyl)-3-methyl-2-oxoindoline-6-carboxamide] stands above 10 µM; under `CC1(CO)C(=O)N(Cc2cc(F)cc(F)c2)c2cc(C(=O)NCc3ccc(F)cc3F)ccc21` (stereo not drawn) [Example 176, N-(2,4-difluorobenzyl)-1-(3,5-difluorobenzyl)-3-(hydroxymethyl)-3-methyl-2-oxoindoline-6-carboxamide], above 10 µM.
In turn, `CC1(CCCO)C(=O)N(Cc2c(F)cccc2Cl)c2cc(C(=O)NCc3c(F)cc(F)cc3F)ccc21` (stereo not drawn) [Example 177, 1-(2-chloro-6-fluorobenzyl)-3-(3-hydroxypropyl)-3-methyl-2-oxo-N-(2,4,6-trifluorobenzyl)indoline-6-carboxamide] returned an EC50 above 10 µM.
Under `CC1(CC#N)C(=O)N(Cc2cc(F)cc(F)c2)c2cc(C(=O)NCc3c(F)cc(F)cc3F)ccc21` (stereo not drawn) [Example 178, 3-(cyanomethyl)-1-(3,5-difluorobenzyl)-3-methyl-2-oxo-N-(2,4,6-trifluorobenzyl)indoline-6-carboxamide] stands 1 to 10 µM; under `CC1(C)C(=O)N(Cc2cc(F)cc(F)c2)c2cc(C(=O)NCc3c(F)cc(F)cc3F)cnc21` [Example 179, 1-(3,5-Difluorobenzyl)-3,3-dimethyl-2-oxo-N-(2,4,6-trifluorobenzyl)-2,3-dihydro-1H-pyrrolo[3,2-b]pyridine-6-carboxamide], 1 to 10 µM; under `CC1(C)C(=O)N(Cc2cc(F)cc(F)c2)c2nc(C(=O)NCc3c(F)cc(F)cc3F)ccc21` [Example 180, 1-(3,5-difluorobenzyl)-3,3-dimethyl-2-oxo-N-(2,4,6-trifluorobenzyl)-2,3-dihydro-1H-pyrrolo[2,3-b]pyridine-6-carboxamide], 1 to 10 µM.
Under `CC1(C)C(=O)N(Cc2ccc(F)cc2)c2nc(C(=O)NCc3c(F)cc(F)cc3F)ccc21` [Example 181, 1-(4-fluorobenzyl)-3,3-dimethyl-2-oxo-N-(2,4,6-trifluorobenzyl)-2,3-dihydro-1H-pyrrolo[2,3-b]pyridine-6-carboxamide] stands above 10 µM; under `Cc1cc(CN2C(=O)C(C)(C)c3ccc(C(=O)NCc4cc5ccccc5o4)nc32)ccn1` [Example 183, N-(benzofuran-2-ylmethyl)-3,3-dimethyl-1-((2-methylpyridin-4-yl)methyl)-2-oxo-2,3-dihydro-1H-pyrrolo[2,3-b]pyridine-6-carboxamide], 1 to 10 µM; under `CC1(C)C(=O)N(Cc2ccncc2)c2nc(C(=O)NCc3c(F)cc(F)cc3F)ccc21` [Example 184, 3,3-dimethyl-2-oxo-1-(pyridin-4-ylmethyl)-N-(2,4,6-trifluorobenzyl)-2,3-dihydro-1H-pyrrolo[2,3-b]pyridine-6-carboxamide], 1 to 10 µM.
Under `Cc1cc(CN2C(=O)C(C)(C)c3ccc(C(=O)NCc4c(F)cc(F)cc4F)nc32)ccn1` [Example 185, 3,3-dimethyl-1-((2-methylpyridin-4-yl)methyl)-2-oxo-N-(2,4,6-trifluorobenzyl)-2,3-dihydro-1H-pyrrolo[2,3-b]pyridine-6-carboxamide] stands 1 to 10 µM.
In turn, `CC1(C)C(=O)N(Cc2cc(F)cc(F)c2)c2cc(C(=O)NCc3c(F)cc(F)cc3F)ncc21` [Example 186, 1-(3,5-difluorobenzyl)-3,3-dimethyl-2-oxo-N-(2,4,6-trifluorobenzyl)-2,3-dihydro-1H-pyrrolo[3,2-c]pyridine-6-carboxamide] registered a half-maximal effective concentration (EC50) above 10 µM.
Under `CC1(C)C(=O)N(Cc2cc(F)cc(F)c2)c2nc(C(=O)NCc3cc4ccncc4o3)ccc21` [Example 187, 1-(3,5-difluorobenzyl)-N-(furo[2,3-c]pyridin-2-ylmethyl)-3,3-dimethyl-2-oxo-2,3-dihydro-1H-pyrrolo[2,3-b]pyridine-6-carboxamide] stands above 10 µM; under `CC1(C)C(=O)N(Cc2cc(F)cc(F)c2)c2nc(C(=O)NCCc3c(F)cc(F)cc3F)ccc21` [Example 190, 1-(3,5-difluorobenzyl)-3,3-dimethyl-2-oxo-N-(2,4,6-trifluorophenethyl)-2,3-dihydro-1H-pyrrolo[2,3-b]pyridine-6-carboxamide], above 10 µM; under `CC1(C)C(=O)N(Cc2cc(F)cc(F)c2)c2nc(C(=O)NCc3ccc(C#N)cc3)ccc21` [Example 192, N-(4-cyanobenzyl)-1-(3,5-difluorobenzyl)-3,3-dimethyl-2-oxo-2,3-dihydro-1H-pyrrolo[2,3-b]pyridine-6-carboxamide], 1 to 10 µM.
Under `CC1(C)C(=O)N(Cc2cc(F)cc(F)c2)c2cc(C(=O)NCc3cc4ccccc4o3)cnc21` [Example 193, N-(benzofuran-2-ylmethyl)-1-(3,5-difluorobenzyl)-3,3-dimethyl-2-oxo-2,3-dihydro-1H-pyrrolo[3,2-b]pyridine-6-carboxamide] stands above 10 µM; under `Cc1cccc(F)c1CN1C(=O)C(C)(C)c2ccc(C(=O)NCc3ccc(F)cc3)nc21` [Example 194, 1-(2-fluoro-6-methylbenzyl)-N-(4-fluorobenzyl)-3,3-dimethyl-2-oxo-2,3-dihydro-1H-pyrrolo[2,3-b]pyridine-6-carboxamide], 1 to 10 µM; under `Cc1ccc(CNC(=O)c2ccc3c(n2)N(Cc2c(C)cccc2F)C(=O)C3(C)C)o1` [Example 195, 1-(2-fluoro-6-methylbenzyl)-3,3-dimethyl-N-((5-methylfuran-2-yl)methyl)-2-oxo-2,3-dihydro-1H-pyrrolo[2,3-b]pyridine-6-carboxamide], 1 to 10 µM.
